For test [1], the system named is 2-OG hydrolysis in whole worm homogenates. Nature of the test: Competitive [3H]2-OG hydrolysis assay in whole worm homogenate. Format: biochemical, C. elegans. The procedure:
(§1) Worm homogenization and membrane preparation: the animals were collected from NGM plates as described before. The animals were freshly broken/homogenized by tip sonication before the beginning of every assays in S-basal and then a protein estimation was carried out for these samples, by a standard BCA kit (Sigma-Aldrich, St. Louis, MO, USA). For membrane preparations the worm pellet was resuspended in homogenization buffer (50 mM Tris HCl pH = 7.4, 3 mM MgCl2, 1 mM EGTA). Next, the homogenate was transferred to an ultracentrifuge tube and spun at 100,000× g for 60 min at 4 °C. The supernatant was carefully removed and the pellet was gently washed. Then, the pellet was resuspended with the help of a polytron in 50 mM Tris HCl pH = 7.4 and passed through a clean syringe. Finally, the sample was sonicated in a water bath for 5 min. A protein estimation for the membranes was carried out and the aliquots were frozen and stored at −80 °C.
(§2) AEA and [^3H] 2-OG, respectively. The reaction was performed using worm homogenate (200 or 100 µg per sample) or pig brain homogenate (200 µg per sample) in 194 μL of assay buffer (10 mM Tris-HCl, 1 mM EDTA, 0.1 % BSA, pH 8.0). […] Signal was detected with TRICARB 2100TR scintillation counter and results were analyzed with GraphPad Prism 5® and expressed as [^3H] […]

The next test concerns MAGL. Description: Competitive [3H]2-OG hydrolysis assay in pig brain homogenate. In kind it is biochemical.
The next test addresses T1, NPR-32 (Caenorhabditis elegans, UniProt O62403).
T1 sequence (O62403 1-440): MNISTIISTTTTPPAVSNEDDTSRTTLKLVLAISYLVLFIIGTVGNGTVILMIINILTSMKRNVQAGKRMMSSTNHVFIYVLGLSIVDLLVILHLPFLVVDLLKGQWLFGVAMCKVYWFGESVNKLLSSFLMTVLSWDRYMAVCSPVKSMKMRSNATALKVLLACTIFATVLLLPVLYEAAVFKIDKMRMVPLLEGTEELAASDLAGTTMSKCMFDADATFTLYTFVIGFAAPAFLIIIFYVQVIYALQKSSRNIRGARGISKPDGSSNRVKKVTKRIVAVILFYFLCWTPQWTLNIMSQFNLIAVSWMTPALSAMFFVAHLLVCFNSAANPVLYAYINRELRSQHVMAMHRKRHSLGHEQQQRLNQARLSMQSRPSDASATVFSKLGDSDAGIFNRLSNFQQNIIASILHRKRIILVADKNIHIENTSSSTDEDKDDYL
Nature of the test: NPR-32 competitive binding assay with [3H]CP55,940 on N2 (WT) membrane preparations. More on the design: species or system C. elegans. The method, then:
as §1
CP55,940 for 75 min at 30 °C. After the incubation time, membrane suspensions were rapidly filtered through a 0.1% polyethyleneimine presoaked 96-well microplate bonded with GF/B glass fiber filters (UniFilter-96 GF/B, PerkinElmer Life Sciences) under vacuum and washed 12 times with 120 µL of washing buffer (50 mM Tris-HCl, 2.5 mM EDTA, 5 mM MgCl2, 0.5% BSA, pH 7.5). […] The results were analyzed with GraphPad Prism 5® and expressed as % of [^3H]CP55,940 binding. IC50 values of each compound were estimated from fitted nonlinear curves and were used to calculate the Ki values by applying the Cheng-Prusoff equation.

The subject of test [2] is fat-3(wa22) mutant. Description: Brood size assay after dietary PUFA supplementation. Format: in vivo, C. elegans. Particulars: for hatching and brood size defects: fat-3(wa22), 200 μM in E. coli OP50 diet, p < 0.0001. The method, then:
(§3) Ten mM stock solutions of AA, ω-3 AA and JuA were prepared in DMSO and kept at −20 °C. These stocks were diluted in E. coli OP50 to a final concentration of 200 μM, and 100 μL of the volume was seeded onto each plate, with appropriate DMSO controls, allowing drying for 1 h in the dark. The animals that were treated with the PUFAs from hatching were allowed to grow on these plates until they reached L4 larval stage.
N2 (WT) and fat-3(wa22) were transferred onto NGM plates supplemented with PUFAs as described above. Once they reached L4 larval stage, one worm per plate was transferred to a plate freshly seeded with PUFAs and allowed to grow at 23 °C. These animals were transferred to new plates every 24 h until they ceased to lay eggs. The number of hatched progeny was checked and counts were performed after the population reached L3/L4 stage. This assay was carried out in three independent trials. Results were analyzed with GraphPad Prism 5®, San Diego, CA, USA. The data were pooled and analyzed using Student’s t test. p < 0.05 was accepted as statistically significant.
The RNA interference (RNAi) by feeding assay was performed on NGM agar plates supplemented with additional antibiotics ([…], […]) and 0.8 mM isopropyl-β-D-thiogalactopyranosid (IPTG). The Ahringer RNAi collection was used, E. coli HT115 bacteria containing RNAi vectors expressing double-stranded RNA of the genes fat-4, elo-1, and elo-2 were pre-cultured, induced with IPTG, and used as nematode food as described previously. Assays were carried out on plates seeded with RNAi bacteria induced overnight; the PUFAs were dissolved in sterile distilled water, and then overlaid on the plates just before the assays.

The next test deals with N2 (WT) animals. Nature of the test: Lifespan assay, N2 (WT). In kind it is in vivo, C. elegans. Particulars: supplementation, 23 °C, 50 μg/mL FUDR. The method, then:
as §3
All lifespan assays were carried out at 23 °C. Synchronized populations were obtained by allowing 10–15 hermaphrodites lay eggs overnight, and the next day the parents were removed. The eggs were allowed to hatch and 30 L4/young adult animals per plate (NGM plate containing 50 μg/mL FUDR to prevent the growth of progeny) were used for each assay. All the assays were carried out at least in triplicates and a minimum of two independent trials were performed for all conditions. The dead animals were counted starting the next day and exploding, protruding, bagging or contaminated animals were censored if applicable. We defined the day when we transferred the L4/young adult animals as day 0 of adult age. All statistical analyses were carried out using results that were analyzed with GraphPad Prism 5®. Kaplan–Meier lifespan analysis was carried out, and p values were calculated using the log-rank test. p < 0.05 was accepted as statistically significant.

Test [3] deals with fat-3(wa22) mutant. Nature of the test: Development monitoring after dietary PUFA supplementation. Particulars: 200 μM in E. coli OP50 diet, 36 h after hatching, 23 °C. Format: in vivo, C. elegans. The method, then: as §3, with “stage. For monitoring the development N2 (WT) and fat-3(wa22) gravid animals were allowed to lay eggs for 2–3 h. These eggs were transferred onto NGM plates supplemented with PUFAs as described above. Their growth was monitored and then imaged using an AmScope MU1000 camera, USA.” for “stage.”

The next test concerns the target T2, FAAH-1 (Caenorhabditis elegans, UniProt Q17449).
T2 construct: from tissue; host or cells: whole C. elegans worm homogenate
T2 sequence (Q17449 15-572): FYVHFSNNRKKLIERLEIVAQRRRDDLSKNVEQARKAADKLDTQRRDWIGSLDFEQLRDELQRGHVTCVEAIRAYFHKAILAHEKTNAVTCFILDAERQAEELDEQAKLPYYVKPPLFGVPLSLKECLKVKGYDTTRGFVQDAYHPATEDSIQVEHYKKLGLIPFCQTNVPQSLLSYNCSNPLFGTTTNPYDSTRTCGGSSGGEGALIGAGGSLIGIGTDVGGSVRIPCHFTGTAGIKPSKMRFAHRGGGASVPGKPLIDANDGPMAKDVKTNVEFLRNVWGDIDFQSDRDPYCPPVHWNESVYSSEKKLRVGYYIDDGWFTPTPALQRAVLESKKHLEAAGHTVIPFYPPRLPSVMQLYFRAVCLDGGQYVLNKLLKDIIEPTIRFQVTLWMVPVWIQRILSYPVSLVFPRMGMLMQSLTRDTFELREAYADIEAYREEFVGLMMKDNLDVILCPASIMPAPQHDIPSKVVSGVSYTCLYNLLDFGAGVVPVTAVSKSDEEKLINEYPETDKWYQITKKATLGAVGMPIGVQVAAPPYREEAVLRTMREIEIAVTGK
Nature of the test: Competitive [3H]AEA hydrolysis assay in whole worm homogenate. In kind it is biochemical, C. elegans. The method, then: as §1, §2

A further test addresses T3, FAAH (Sus scrofa, UniProt Q9TUI8).
T3 construct: or pig brain homogenate (200 µg per sample); from tissue; host or cells: pig brain homogenate
T3 sequence (Q9TUI8 1-579): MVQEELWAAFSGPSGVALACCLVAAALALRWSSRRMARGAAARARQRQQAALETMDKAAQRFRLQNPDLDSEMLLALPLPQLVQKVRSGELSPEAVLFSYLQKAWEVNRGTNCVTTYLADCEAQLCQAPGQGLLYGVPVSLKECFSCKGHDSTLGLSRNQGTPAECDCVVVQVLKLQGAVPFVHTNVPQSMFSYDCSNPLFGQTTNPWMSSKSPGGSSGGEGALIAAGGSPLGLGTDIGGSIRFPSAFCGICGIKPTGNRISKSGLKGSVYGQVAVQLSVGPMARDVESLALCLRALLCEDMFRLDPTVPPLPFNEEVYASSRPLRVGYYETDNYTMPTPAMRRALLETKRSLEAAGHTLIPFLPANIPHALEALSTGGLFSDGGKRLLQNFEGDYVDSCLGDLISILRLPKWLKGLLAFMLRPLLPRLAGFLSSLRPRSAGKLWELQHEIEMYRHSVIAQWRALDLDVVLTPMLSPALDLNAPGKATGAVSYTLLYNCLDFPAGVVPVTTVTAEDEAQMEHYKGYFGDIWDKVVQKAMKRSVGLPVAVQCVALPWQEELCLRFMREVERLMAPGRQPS
Nature of the test: Competitive [3H]AEA hydrolysis assay in pig brain homogenate. Format: biochemical. The procedure:
AEA and [^3H] 2-OG, respectively. The reaction was performed using worm homogenate (200 or 100 µg per sample) or pig brain homogenate (200 µg per sample) in 194 μL of assay buffer (10 mM Tris-HCl, 1 mM EDTA, 0.1 % BSA, pH 8.0). […] The reaction was stopped by adding 400 μL of ice-cold mixture CHCl3-CH3OH (1:1 v/v), and, subsequently, tubes were vortexed and centrifuged for 10 min at 4 °C and 10,000 rpm. Finally, the upper aqueous phase was transferred to scintillation vials and mixed with 3 mL of Ultima Gold scintillation liquid. Signal was detected with TRICARB 2100TR scintillation counter and results were analyzed with GraphPad Prism 5® and expressed as [^3H] AEA or [^3H] 2-OG hydrolysis (% of vehicle).

[4] abbreviates: displacement of 3 nM [3H]CP55,940, N2 (WT) membranes, 5 µM JZL-195 preincubation; apparent Ki by Cheng-Prusoff; 95% CI; read-out: Ki, NPR-32 binding.
The mark [5] stands for this setting: read-out: Ki, NPR-32 binding; displacement of 3 nM [3H]CP55,940, N2 (WT) membranes, 5 µM JZL-195 preincubation; apparent Ki by Cheng-Prusoff; 95% CI.

The values that follow come from paper PMC7564282, “Juniperonic Acid Biosynthesis is Essential in Caenorhabditis elegans Lacking Δ6 Desaturase (fat-3) and Generates New ω-3 Endocannabinoids” (Cells, 2020).

In general, IC50 refers to the midpoint of a concentration-inhibition curve.

Like-named read-outs stand apart in the source and are kept apart here. Where only a bound is given, the exact number is not on record here.

As for 1/2-juniperoylglycerol [1/2-JG], the “competition with 2-OG hydrolysis” value in test [1] was “competed”. Moreover, the “hydrolysis by MAGL (competition with tritiated 2-OG)” value in the test with MAGL is on record as “readily hydrolyzed”. Also, the Ki at NPR-32 (setting [4]) was 1100 nM.
In the case of `CCCCC/C=C\C/C=C\C/C=C\C/C=C\CCCC(=O)O` [AA, Arachidonic acid], in the test with fat-3(wa22) mutant [2], the “hatching and brood size defects” value is “recovered”. Further, the effect on lifespan result in the test with N2 (WT) animals is recorded as “did not affect the lifespan”. The “recovery of growth and development defects” value (shortened to “recovery”) in the test on fat-3(wa22) mutant [3] was “significant recovery of growth and development defects”.
Consider `CCCCC/C=C\C/C=C\C/C=C\C/C=C\CCCC(=O)NCCO` [AEA, N-arachidonoyl ethanolamine], for which the Ki on NPR-32 (setting [5]) came to 1900 nM.
Consider `CC/C=C\C/C=C\C/C=C\CCCC/C=C\CCCC(=O)NCCO` [JEA, N-juniperoyl ethanolamine], for which the “competition with AEA hydrolysis” value on FAAH-1 (whole worm homogenates) is “competed”. The “hydrolysis by FAAH (competition with tritiated AEA)” value on FAAH is reported as “readily hydrolyzed”. Moreover, at NPR-32 (setting [4]), the Ki amounted to 740 nM.
On to `CC/C=C\C/C=C\C/C=C\CCCC/C=C\CCCC(=O)O` [JuA, Juniperonic acid], for which the “reversal of growth delay and brood size reduction in RNAi knockdowns” value in the test with fat-3(wa22) mutant [2] (fat-3(wa22) with fat-4 and elo-2 RNAi knockdown, JuA supplementation) is reported as “could reverse the additional detrimental effects”. The “hatching and brood size defects” value in the test on fat-3(wa22) mutant [2] is “recovered”. For the same compound, the effect on lifespan result with N2 (WT) animals is on record as “did not affect the lifespan”. In the test on fat-3(wa22) mutant [3], the “recovery” value is “significant recovery of growth and development defects”.
On to `CC/C=C\C/C=C\C/C=C\C/C=C\CCCCCCC(=O)O` [ω-3 AA, Omega-3 arachidonic acid], for which, in the test with fat-3(wa22) mutant [2], the “hatching and brood size defects” value is “recovered”. The effect on lifespan result in the test on N2 (WT) animals is “did not affect the lifespan”. Also, the “recovery” value in the test on fat-3(wa22) mutant [3] was “significant recovery of growth and development defects”.
On to `CC/C=C\C/C=C\C/C=C\C/C=C\CCCCCCC(=O)NCCO` [ω-3 AEA, Omega-3 N-arachidonoyl ethanolamine], for which the IC50 on FAAH-1 (whole worm homogenate, 20 min 37 °C, AEA final 2 µM, read-out: IC50, competition with [3H] AEA hydrolysis) was 36000 nM; at FAAH (20 min 37 °C, AEA final 2 µM, read-out: IC50, competition with [3H]-AEA hydrolysis) it was above 100000 nM. The Ki on NPR-32 (setting [5]) came out at 1000 nM.
As to “Omega-3 1/2-arachidonoyl glycerol [ω-3 1/2-AG]”, the “competition with 2-OG hydrolysis” value in test [1] is “competed”.
